# Where a SMILES comes first, the peptide text is derived from it. Bridges are numbered along the chain shown (N, C = ends). [ ]: non-standard residue; d: D form. Hyp = O=C(O)[C@@H]1C[C@@H](O)CN1; Pen = CC(C)(S)[C@H](N)C(=O)O; dDab = NCC[C@@H](N)C(=O)O; Dab = NCC[C@H](N)C(=O)O
# Legend:
# Type in all cases: cell-based
# [1] = test system: Escherichia coli ATCC 25922; details: ATCC 25922
# Procedure: (§1) Lyophilized peptides were weighed on a Microbalance (Mettler MT5) and dissolved in sterile water to a final concentration of 1 mg/mL. Stock solutions were kept at +4° C., light protected.
# (§2) The selective antimicrobial activities of the peptides were determined in 96-well plates (Greiner, polystyrene) by the standard CLSI broth microdilution method (Clinical and Laboratory Standards Institute. Methods for Dilution Antimicrobial Susceptibility Tests for Bacteria That Grow Aerobically; Approved Standard-Ninth Edition. CLSI document M07-A9 (ISBN 1-56238-783-9 [Print]; ISBN 1-56238-784-7 [Electronic]). Clinical and Laboratory Standards Institute, 950 West Valley Road, Suite 2500, Wayne, Pennsylvania 19087, USA, 2012) with slight modifications.
# (§3) Colonies of the microorganisms were diluted in saline (0.85%, NaCl) and adjusted using a McFarland reader (bioMérieux SA, Marcy-l'Etoile, France) to 0.5 McFarland standard. Subsequently, the bacterial suspension was diluted in Mueller-Hinton II (MHII, cation adjusted) broth to give approximately 5×10^5 colony forming units (CFU/mL).
# (§4) Inocula of the microorganisms were diluted into Mueller-Hinton II (MH, cation adjusted) broth and compared with a 0.5 McFarland standard to give appr. 10^6 colony forming units (CFU)/mL. Aliquots (90 μl) of inoculate were added to 10 μl of water+P-80 (Polysorbate 80, 0.002% final concentration) containing the peptide in serial two-fold dilutions at 10 fold final concentration. The following microorganisms were used to determine antibiotic selectivity of the peptides: Escherichia coli ATCC 25922, Escherichia coli MCR-1 Af 45 and Klebsiella pneumoniae SSI3010. Antimicrobial activities of the peptides were expressed as the minimal inhibitory concentration (MIC) in μg/mL at which no visible growth was observed after 18-20 hours of incubation at 35° C.
# [2] = test system: Escherichia coli MCR-1 Af 45; details: MCR-1 Af 45
# Procedure: as §1, §2, §3, §4
# [3] = test system: Klebsiella pneumoniae SSI3010; details: SSI3010
# Procedure: as §1, §2, §3, §4
# [4] = test system: human red blood cells (hRBC); details: red cells of human, 1 h, 200 μg/mL
# Procedure: Lyophilized peptides were weighed on a Microbalance (Mettler MT5) and dissolved in sterile water to a final concentration of 1 mg/mL. Stock solutions were kept at +4° C., light protected. The peptides were tested for their hemolytic activity against human red blood cells (hRBC). Fresh hRBC were washed three times with phosphate buffered saline (PBS) and centrifuged for 5 min at 3000×g. Compounds (200 μg/mL) were incubated with 20% hRBC (v/v) for 1 h at 37° C. and shaking at 300 rpm. A value of 0% and 100% cell lyses, respectively, was determined by incubation of hRBC in the presence of PBS and 2.5% Triton X-100 in H2O, respectively. The samples were centrifuged, the supernatants were 8-fold diluted in PBS buffer and the optical densities (OD) were measured at 540 nm. The 100% lyses value (OD540H2O) gave an OD540 of approximately 0.5-1.0. Percent hemolysis was calculated as follows: (OD540peptide/OD540H2O)×100%.
Escherichia coli ATCC 25922 MIC [1] [µg/mL],Escherichia coli MCR-1 Af45 MIC [2] [µg/mL],Klebsiella pneumoniae SSI3010 MIC [3] [µg/mL],SMILES,Hemolysis at 0.2 g/L [4] [%]
0.125,0.125,0.25,"CC[C@H](C)[C@H](NC(=O)[C@@H]1C[C@@H](O)CN1C(=O)[C@@H](N)C(C)C)C(=O)N[C@@H]1C(=O)N[C@@H](Cc2ccc(O)cc2)C(=O)N[C@@H]([C@@H](C)O)C(=O)N[C@@H](CC(N)=O)C(=O)N[C@@H](CCCNC(=N)N)C(=O)N[C@@H](CCN)C(=O)N[C@@H](CC(N)=O)C(=O)N[C@H](CCN)C(=O)N[C@@H](CCCCN)C(=O)N[C@@H](CCN)C(=O)N[C@@H](CCN)C(=O)N[C@H](C(=O)N[C@@H](Cc2ccc(O)cc2)C(=O)O)CSSC1(C)C [Example 19, Val-Hyp-Ile-Pen-Tyr-Thr-Asn-Arg-Dab-Asn-^DDab-Lys-Dab-Dab-Cys-Tyr] (H-V[Hyp]I[Pen]YTNR[Dab]N[dDab]K[Dab][Dab]CY-OH; disulfide 4-15)",<1
0.5,0.5,1,"CC[C@H](C)[C@H](NC(=O)[C@@H]1C[C@@H](O)CN1C(=O)[C@@H](N)C(C)C)C(=O)N[C@@H]1C(=O)N[C@@H](Cc2ccc(O)cc2)C(=O)N[C@@H](CO)C(=O)N[C@@H](C)C(=O)N[C@@H](CCCNC(=N)N)C(=O)N[C@@H](CCN)C(=O)N[C@@H]([C@@H](C)O)C(=O)N[C@H](CCN)C(=O)N[C@@H](CCCCN)C(=O)N[C@@H](CCN)C(=O)N[C@@H](CCN)C(=O)N[C@H](C(=O)N[C@@H](Cc2ccc(O)cc2)C(=O)O)CSSC1(C)C [Example 20, Val-Hyp-Ile-Pen-Tyr-Ser-Ala-Arg-Dab-Thr-^DDab-Lys-Dab-Dab-Cys-Tyr] (H-V[Hyp]I[Pen]YSAR[Dab]T[dDab]K[Dab][Dab]CY-OH; disulfide 4-15)",<1
0.0625,0.0625,0.125,"CC[C@H](C)[C@@H]1NC(=O)[C@H](CO)NC(=O)[C@H](Cc2ccc(O)cc2)NC(=O)[C@@H](NC(=O)[C@@H](NC(=O)[C@@H]2C[C@@H](O)CN2C(=O)[C@@H](N)C(C)C)[C@@H](C)CC)C(C)(C)SSC[C@@H](C(=O)N[C@@H](Cc2ccc(O)cc2)C(=O)O)NC(=O)[C@H](CCN)NC(=O)[C@H](CCN)NC(=O)[C@H](CCCCN)NC(=O)[C@@H](CCN)NC(=O)[C@H]([C@@H](C)O)NC(=O)[C@H](CCN)NC(=O)[C@H](CCCNC(=N)N)NC1=O [Example 21, Val-Hyp-Ile-Pen-Tyr-Ser-Ile-Arg-Dab-Thr-^DDab-Lys-Dab-Dab-Cys-Tyr] (H-V[Hyp]I[Pen]YSIR[Dab]T[dDab]K[Dab][Dab]CY-OH; disulfide 4-15)",<1
0.5,0.25,0.5,"CC[C@H](C)[C@H](NC(=O)[C@@H]1C[C@@H](O)CN1C(=O)[C@@H](N)C(C)C)C(=O)N[C@@H]1C(=O)N[C@@H](Cc2ccc(O)cc2)C(=O)N[C@@H](CO)C(=O)N[C@@H](CCC(=O)O)C(=O)N[C@@H](CCCNC(=N)N)C(=O)N[C@@H](CCN)C(=O)N[C@@H]([C@@H](C)O)C(=O)N[C@H](CCN)C(=O)N[C@@H](CCCCN)C(=O)N[C@@H](CCN)C(=O)N[C@@H](CCN)C(=O)N[C@H](C(=O)N[C@@H](Cc2ccc(O)cc2)C(=O)O)CSSC1(C)C [Example 22, Val-Hyp-Ile-Pen-Tyr-Ser-Glu-Arg-Dab-Thr-^DDab-Lys-Dab-Dab-Cys-Tyr] (H-V[Hyp]I[Pen]YSER[Dab]T[dDab]K[Dab][Dab]CY-OH; disulfide 4-15)",<1
